{
  "source": "paper PMC12518693",
  "about": "“Potent Fluorescent Probe for Target‐Engagement Studies of Allosteric Pyruvate Kinase Modulators” (Angewandte Chemie (International Ed. in English), 2025)",
  "key": {"[1]": {"system": "PKLNluc and PKLwt", "experiment": "Native PAGE in-gel fluorescence, PKLNluc and PKLwt", "type": "binding, human", "conditions": "IV 2.5 or 10 µM", "experimental": "To study the interaction of IV with PKLNluc and its oligomers, native PAGE was performed (Figure 4). Recombinant PKLNluc was incubated for 2 h with IV (0.15–10 µM) or DMSO and loaded onto gels. […] Colloidal blue staining and western blotting with anti‐PKL antibodies confirmed the predominance and identity of the bands (Figure S11a,d). […] PKM2 and PKL exist in equilibrium between oligomeric states, with PKM2 mainly dimeric when unbound.^[ [18] ^] As oligomerization regulates PK function,^[ [11], [54] ^] PKLNluc oligomerization was compared to PKLwt and PKM2 (Figure 4b,c). […] Colloidal blue and anti‐PKM2 blots confirmed PKM2 was mostly monomeric, explaining the lack of binding (Figure S11).\nRecombinant PKLNLuc (4 x 950 ng) was incubated for 1 hour at ambient temperature with different concentrations of compound IV in a total volume of 60 µL Tris-HCl buffer pH 7.4 (50 mM Tris, 100 mM KCl, 10 mM MgCl2, 0.05% Tween 20). PKM2 and PKL recombinants (2 x 950 ng) were also incubated for 1 hour at ambient temperature with different concentrations of the compound IV (0, 2.5 and 10 µM). […]\nA ChemiDoc imager (Bio-Rad, Alexa 488 filter) was used for fluorescence detection of compound IV bound to the proteins. […] The images of the in-gel fluorescence and luminescence detection were superimposed. […]"}, "[2]": {"target": "PKL (Homo sapiens, UniProt P30613)", "sequence (P30613 1-543 isoform P30613-2)": "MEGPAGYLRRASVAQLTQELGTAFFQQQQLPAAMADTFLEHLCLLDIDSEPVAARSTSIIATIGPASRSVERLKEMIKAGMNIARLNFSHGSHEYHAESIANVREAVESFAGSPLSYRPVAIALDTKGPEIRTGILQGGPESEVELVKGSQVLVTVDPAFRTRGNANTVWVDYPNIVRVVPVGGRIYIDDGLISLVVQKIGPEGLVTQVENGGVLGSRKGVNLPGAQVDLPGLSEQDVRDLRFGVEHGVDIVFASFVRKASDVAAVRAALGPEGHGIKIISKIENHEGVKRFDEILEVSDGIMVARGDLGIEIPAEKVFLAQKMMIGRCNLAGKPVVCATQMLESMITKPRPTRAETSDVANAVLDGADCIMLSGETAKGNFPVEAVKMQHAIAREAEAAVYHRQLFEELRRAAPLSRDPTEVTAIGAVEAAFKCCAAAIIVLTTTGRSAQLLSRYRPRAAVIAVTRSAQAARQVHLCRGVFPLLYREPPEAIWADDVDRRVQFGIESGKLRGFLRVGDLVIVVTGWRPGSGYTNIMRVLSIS", "experiment": "Recombinant PKL activity assay (Kinase-Glo MAX)", "type": "biochemical", "set-up": "co-crystallisation of full-length PKL (including the B-domain); 8xHis (TEV-cleavable) (N, cleaved yes); made in house; host or cells: E. coli T7 Express (NEB), pExp-NHis plasmid", "experimental": "The two isozymes were incubated with increasing concentrations of compounds before the addition of substrates PEP and adenosine diphosphate (ADP), and the reactions were monitored using a Kinase‐Glo MAX assay.\nFigure S2. […] The reactions were terminated by the addition of Kinase Glo-MAX reagent after 10 min, and the luminescence from each reaction was quantified using a plate reader. The activity values are expressed as a percentage of PK activity of the DMSO control. The potencies were calculated by best fit of the Hill equation to the luminescence data.^[2] (A) PKL titrations. (B) PKM2 titrations. Error bars represent the ±SE of replicates (n = 3).\nThe reaction mixture contained 0.2 mM ADP, 0.1 mM PEP, 5 nM PKL, 1% DMSO, and test compounds at concentrations ranging from 0 to 1 mM across 12 titration points. Prior to substrate addition, PKL and test compounds were pre-incubated for 15 minutes.\nAfter the reaction, 5 µL of Kinase-Glo Max reagent was added to each well. […] For each data set, luminescence from the DMSO control was set as 100% activity, and luminescence from the protein blank (no PKL) as 0% activity. Percentage activity (E%) was calculated using the equation: […]\nTitration data was fitted to the Hill equation in Origin to determine EC₅₀ values."}, "[3]": {"system": "HEK293 cells", "experiment": "Live-cell uptake by confocal microscopy", "type": "cell-based", "conditions": "live HEK293, 1 µM", "experimental": "To investigate the cellular permeability of IV, we employed confocal microscopy to monitor the uptake of the tracer in live HEK293 cells over time. The tracer was added to live cells at a final concentration of 1 µM, and real‐time fluorescence intensity was recorded immediately after addition. A rapid increase in fluorescence was observed, reaching a stable plateau approximately 4 min after addition, indicating fast cellular uptake and […] (Figure 3a and Video S1).\nFluorescence intensity was then continuously monitored for 60 min. To assess potential fluorophore degradation, corrected total cell fluorescence (CTCF) was calculated at each time point (Figure S6). Fluorescence values from regions of interest (ROIs) were integrated and normalized cell area and background signals in the absence of tracer.\nTo attach HEK293 cells to the bottom of 24-well imaging plates (Ibidi 82427), a Cell-Tak adhesive mixture (Corning, 354240) was used. It was prepared with a mixture of sodium bicarbonate (75 g/L), sodium hydroxide (40 g/L) and Cell-Tak (2.03 g/L) at a volume ratio of 291:5:4. For each well, 500 μL of Cell-Tak mix was added and incubated at room temperature for 30 min. […] For analysing intracellular fluorescence and distribution of IV within HEK293 cells, Z-stack images (22 images) were acquired after 5, 15, 30 and 60 min of incubation across a physical depth of ~22 μm. […]"}},
  "data": [
    {"smiles": "CN(C)c1ccc(S(=O)(=O)c2ccc3c(=O)n(Cc4cc[nH]n4)ncc3c2)c2nonc12", "note": "[Compound IV, 2-((1H-Pyrazol-3-yl)methyl)-6-((7-(dimethylamino)benzo[c][1,2,5]oxadiazol-4-yl)sulfonyl)phthalazin-1(2H)-one]", "values": [
      {"measurement": "in-gel fluorescence labeling of oligomers", "setting": "[1]", "value": "labeling only of the tetramers"},
      {"measurement": "in-gel fluorescence labeling of oligomers", "setting": "[1]; listed as LumiPK", "value": "exclusively to the tetrameric form of PKL"},
      {"measurement": "EC50", "setting": "[2]; recombinant PKL 10 nM, 15 min pre-incubation, PEP 0.1 mM, ADP 0.2 mM", "value": 13, "unit": "nM"},
      {"measurement": "PKL E max", "setting": "[2]; recombinant PKL, above 100% activation, below 100% inhibition", "value": 169, "unit": "% vehicle"},
      {"measurement": "time to stable fluorescence plateau after addition", "setting": "[3]", "value": "approximately 4 min"}
    ]}
  ]
}
